System: LPS-stimulated human peripheral blood mononuclear cells (PBMCs)
Experiment: In vitro inhibition of LPS-stimulated cytokine/chemokine/growth factor production (Milliplex 38-plex)
Type: cell-based
Details: for inhibitory activity on inflammatory cytokines: preliminary study, LPS-stimulated PBMC; for Inhibitory scale (0-5): D1 PBMC, 1 ng/mL LPS, 0 = no or very minimal inhibition, 1 to 2.5 = IFNγ, IL-1 series, IP-10, MCP-1, 3 = TNFα also, above 3 = some T cell cytokines, 5 = all cytokines inhibited; for immunomodulatory response type: approximately 10 μM, stimulatory = signal above 130%, inhibitory = signal below 70% of LPS-stimulated control (no FFA added)

Molecule: CC/C=C\C/C=C\C/C=C\C/C=C\C/C=C\CCCCCC(=O)O [DPAn-3, Docosapentaenoic acid n-3]
- inhibitory activity on inflammatory cytokines (fatty acid as primary component or at higher amount in the preparation): significant inhibitory activity

Molecule: CC/C=C\C/C=C\C/C=C\C/C=C\C/C=C\CCCCCC(=O)O [Syn DPA, DPA]
- Inhibitory scale (0-5) (30 μM FFA preparation): 4.0
- immunomodulatory response type: both stimulatory and inhibitory responses

Molecule: ETA [Syn ETA]
- inhibitory effect on more than half the analytes (30 μM dose, >50% reduction compared to LPS-stimulated control): strong inhibitory effect
- Inhibitory scale (0-5) ([…]): 4.75
- immunomodulatory response type: both stimulatory and inhibitory responses

Molecule: Eicosatetraenoic acid [ETA]
- inhibitory activity on inflammatory cytokines ([…]): significant inhibitory activity
